Columns and labels:
[1] = target: Neuropeptide Y receptor type 1 (Homo sapiens) (UniProt P25929); assay: Inhibition of Neuropeptide Y Y1 at 10 µM in the Eurofins-Panlabs radioligand binding assay (Eurofins_assay_257010); details: Compound concentration 10.0 uM
[2] = target: Acetylcholine receptor subunit alpha (Homo sapiens) (UniProt P02708); assay: Inhibition of Nicotinic Acetylcholine D1, Bungarotoxin at 10 µM in the Eurofins-Panlabs radioligand binding assay (Eurofins_assay_258700); details: Compound concentration 10.0 uM
[3] = target: Platelet-activating factor receptor (Homo sapiens) (UniProt P25105); assay: Inhibition of Platelet Activating Factor (PAF) at 10 µM in the Eurofins-Panlabs radioligand binding assay (Eurofins_assay_265010); details: Compound concentration 10.0 uM
[4] = target: Cyclin-dependent kinase 5/CDK5 activator 1 (Homo sapiens) (UniProt Q00535+Q15078); assay: CDK5/p35 Kinase screen; format: protein-complex assay; details: Compound concentration 1.0 uM
[5] = target: Death-associated protein kinase 3 (Homo sapiens) (UniProt O43293); assay: DAPK3 (ZIPK) Kinase screen; details: Compound concentration 1.0 uM
[6] = target: Tyrosine-protein kinase Lck (Homo sapiens) (UniProt P06239); assay: LCK Kinase screen; details: Compound concentration 1.0 uM
[7] = target: Dual specificity mitogen-activated protein kinase kinase 1 (Homo sapiens) (UniProt Q02750); assay: MAP2K1 (MEK1) Kinase screen; details: Compound concentration 1.0 uM
[8] = target: Dual specificity mitogen-activated protein kinase kinase 2 (Homo sapiens) (UniProt P36507); assay: MAP2K2 (MEK2) Kinase screen; details: Compound concentration 1.0 uM
[9] = target: T1, Muscle, skeletal receptor tyrosine-protein kinase (Homo sapiens) (UniProt O15146); assay: MUSK Kinase screen; details: Compound concentration 1.0 uM
T1 sequence (whole entry): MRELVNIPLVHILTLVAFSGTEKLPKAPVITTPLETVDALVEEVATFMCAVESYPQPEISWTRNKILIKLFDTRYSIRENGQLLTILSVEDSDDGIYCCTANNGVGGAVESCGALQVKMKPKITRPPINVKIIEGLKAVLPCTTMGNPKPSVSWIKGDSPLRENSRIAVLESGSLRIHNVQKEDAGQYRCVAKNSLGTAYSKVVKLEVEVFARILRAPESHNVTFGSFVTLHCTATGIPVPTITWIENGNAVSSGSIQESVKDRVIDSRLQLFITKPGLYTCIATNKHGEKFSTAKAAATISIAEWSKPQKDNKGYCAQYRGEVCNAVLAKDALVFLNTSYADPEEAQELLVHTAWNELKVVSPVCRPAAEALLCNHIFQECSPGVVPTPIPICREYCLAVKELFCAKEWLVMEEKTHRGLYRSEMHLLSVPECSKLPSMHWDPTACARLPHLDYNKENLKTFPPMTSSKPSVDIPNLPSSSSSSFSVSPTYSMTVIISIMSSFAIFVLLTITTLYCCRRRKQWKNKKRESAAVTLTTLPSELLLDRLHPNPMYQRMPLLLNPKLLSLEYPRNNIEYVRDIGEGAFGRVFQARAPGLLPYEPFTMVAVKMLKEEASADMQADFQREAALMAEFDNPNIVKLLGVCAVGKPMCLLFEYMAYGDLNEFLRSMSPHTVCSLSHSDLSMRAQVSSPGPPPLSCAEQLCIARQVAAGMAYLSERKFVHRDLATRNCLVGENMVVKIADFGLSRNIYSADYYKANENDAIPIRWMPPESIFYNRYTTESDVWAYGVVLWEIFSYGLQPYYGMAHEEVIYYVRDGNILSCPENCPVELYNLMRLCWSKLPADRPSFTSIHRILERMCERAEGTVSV

[10] = target: T2, Serine/threonine-protein kinase Nek2 (Homo sapiens) (UniProt P51955); assay: NEK2 Kinase screen; details: Compound concentration 1.0 uM
T2 sequence (whole entry): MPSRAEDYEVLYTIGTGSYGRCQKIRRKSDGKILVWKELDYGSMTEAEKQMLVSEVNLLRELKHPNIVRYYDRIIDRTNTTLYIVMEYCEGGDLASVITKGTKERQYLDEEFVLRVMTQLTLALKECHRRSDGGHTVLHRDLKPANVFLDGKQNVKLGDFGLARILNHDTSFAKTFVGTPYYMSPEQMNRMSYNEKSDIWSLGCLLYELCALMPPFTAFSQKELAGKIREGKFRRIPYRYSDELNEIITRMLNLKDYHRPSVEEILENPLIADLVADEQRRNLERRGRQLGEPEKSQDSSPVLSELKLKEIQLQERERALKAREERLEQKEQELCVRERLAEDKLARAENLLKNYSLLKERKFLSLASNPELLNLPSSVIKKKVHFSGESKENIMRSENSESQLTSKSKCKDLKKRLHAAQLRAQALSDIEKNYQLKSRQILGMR

[11] = target: BDNF/NT-3 growth factors receptor (Homo sapiens) (UniProt Q16620); assay: NTRK2 (TRKB) Kinase screen; details: Compound concentration 1.0 uM
[12] = target: Phosphorylase b kinase gamma catalytic chain, skeletal muscle/heart isoform (Homo sapiens) (UniProt Q16816); assay: PHKG1 Kinase screen; details: Compound concentration 1.0 uM
[13] = target: PI3-kinase p110-alpha/p85-alpha (Homo sapiens) (UniProt P27986+P42336); assay: PIK3CA/PIK3R1 (p110 alpha/p85 alpha) Kinase screen; format: protein-complex assay; details: Compound concentration 1.0 uM
[14] = target: Proto-oncogene tyrosine-protein kinase receptor Ret (Homo sapiens) (UniProt P07949); assay: RET Kinase screen; details: Compound concentration 1.0 uM
[15] = tested on: Proto-oncogene tyrosine-protein kinase receptor Ret (Homo sapiens), P07949 [Y791F]; assay: RET Y791F Kinase screen; details: Compound concentration 1.0 uM
[16] = target: SRSF protein kinase 1 (Homo sapiens) (UniProt Q96SB4); assay: SRPK1 Kinase screen; details: Compound concentration 1.0 uM
[17] = target: Neurotensin receptor type 1 (Homo sapiens) (UniProt P30989); assay: Neurotensin NT1 Eurofins-Panlabs radioligand binding assay; set-up: ligand concentration 0.02 nM, non-specific ligand with concentration 1 µM Neurotensin, incubation time 45 min, incubation temperature 25 °C; details: Compound concentration 10.0 uM
[18] = target: Leucine-rich repeat serine/threonine-protein kinase 2 (Homo sapiens, UniProt Q5S007); details: Compound concentration 1000.0 nM
[19] = target: 5-hydroxytryptamine receptor 7 (Homo sapiens) (UniProt P34969); details: Compound concentration 10.0 uM

Dual specificity mitogen-activated protein kinase kinase 1 (Homo sapiens), sequence (Q02750 whole entry): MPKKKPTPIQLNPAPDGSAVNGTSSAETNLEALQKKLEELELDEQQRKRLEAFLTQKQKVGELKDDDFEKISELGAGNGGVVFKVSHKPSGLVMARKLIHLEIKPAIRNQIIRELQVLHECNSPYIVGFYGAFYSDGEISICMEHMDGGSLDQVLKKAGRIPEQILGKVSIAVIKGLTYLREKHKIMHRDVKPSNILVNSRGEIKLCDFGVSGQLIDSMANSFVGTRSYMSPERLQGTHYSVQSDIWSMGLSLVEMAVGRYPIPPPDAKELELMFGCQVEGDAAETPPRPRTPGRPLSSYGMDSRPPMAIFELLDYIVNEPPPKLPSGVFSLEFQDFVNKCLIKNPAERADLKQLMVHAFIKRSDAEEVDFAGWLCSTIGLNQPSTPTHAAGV
BDNF/NT-3 growth factors receptor (Homo sapiens), sequence (Q16620 32-822 limits assumed): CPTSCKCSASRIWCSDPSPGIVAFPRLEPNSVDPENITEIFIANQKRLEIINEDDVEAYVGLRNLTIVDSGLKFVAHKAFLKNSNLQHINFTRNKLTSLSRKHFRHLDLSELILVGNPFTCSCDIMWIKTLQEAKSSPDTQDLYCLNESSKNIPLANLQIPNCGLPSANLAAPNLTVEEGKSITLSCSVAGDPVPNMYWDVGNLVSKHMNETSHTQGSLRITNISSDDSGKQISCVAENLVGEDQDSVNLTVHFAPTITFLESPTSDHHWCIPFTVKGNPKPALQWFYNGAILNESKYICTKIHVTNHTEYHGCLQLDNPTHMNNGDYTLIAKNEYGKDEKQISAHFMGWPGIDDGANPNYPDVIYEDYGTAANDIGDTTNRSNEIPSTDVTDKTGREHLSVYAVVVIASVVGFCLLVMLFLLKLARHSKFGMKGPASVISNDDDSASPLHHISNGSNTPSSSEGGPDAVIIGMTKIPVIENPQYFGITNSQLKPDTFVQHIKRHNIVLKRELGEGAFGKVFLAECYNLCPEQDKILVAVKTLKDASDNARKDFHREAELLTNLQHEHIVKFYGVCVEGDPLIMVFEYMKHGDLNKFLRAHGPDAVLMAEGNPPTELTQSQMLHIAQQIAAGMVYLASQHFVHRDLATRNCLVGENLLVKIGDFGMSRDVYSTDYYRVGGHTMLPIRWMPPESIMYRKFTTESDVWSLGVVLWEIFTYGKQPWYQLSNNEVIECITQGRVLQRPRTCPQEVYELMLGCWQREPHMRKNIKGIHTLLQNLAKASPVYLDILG
Tyrosine-protein kinase Lck (Homo sapiens), sequence (P06239 2-509 limits assumed): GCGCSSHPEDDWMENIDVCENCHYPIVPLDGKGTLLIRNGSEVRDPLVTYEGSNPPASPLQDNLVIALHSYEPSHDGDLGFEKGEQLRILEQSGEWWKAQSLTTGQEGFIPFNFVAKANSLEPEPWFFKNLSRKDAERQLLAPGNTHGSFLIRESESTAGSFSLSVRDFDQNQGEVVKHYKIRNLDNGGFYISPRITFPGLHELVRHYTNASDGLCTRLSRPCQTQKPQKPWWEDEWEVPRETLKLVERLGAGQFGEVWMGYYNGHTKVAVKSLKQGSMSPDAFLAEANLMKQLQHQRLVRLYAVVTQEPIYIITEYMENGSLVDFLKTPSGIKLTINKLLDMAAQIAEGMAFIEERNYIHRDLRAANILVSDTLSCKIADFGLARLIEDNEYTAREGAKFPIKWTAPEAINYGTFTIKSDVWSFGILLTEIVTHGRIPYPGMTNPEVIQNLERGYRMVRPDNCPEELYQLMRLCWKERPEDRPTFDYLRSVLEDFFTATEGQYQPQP
Neuropeptide Y receptor type 1 (Homo sapiens), sequence (P25929 whole entry): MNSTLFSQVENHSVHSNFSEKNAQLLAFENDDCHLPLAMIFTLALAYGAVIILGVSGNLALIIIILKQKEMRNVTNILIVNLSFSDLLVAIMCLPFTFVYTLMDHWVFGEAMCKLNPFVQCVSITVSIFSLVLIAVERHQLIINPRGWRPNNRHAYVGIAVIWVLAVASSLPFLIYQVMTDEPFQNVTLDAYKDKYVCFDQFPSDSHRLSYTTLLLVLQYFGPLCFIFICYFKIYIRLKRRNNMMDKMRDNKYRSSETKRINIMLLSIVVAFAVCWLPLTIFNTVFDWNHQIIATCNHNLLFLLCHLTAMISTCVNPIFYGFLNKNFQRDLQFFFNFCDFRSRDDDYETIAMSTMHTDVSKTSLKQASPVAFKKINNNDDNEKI
Dual specificity mitogen-activated protein kinase kinase 2 (Homo sapiens), sequence (P36507 whole entry): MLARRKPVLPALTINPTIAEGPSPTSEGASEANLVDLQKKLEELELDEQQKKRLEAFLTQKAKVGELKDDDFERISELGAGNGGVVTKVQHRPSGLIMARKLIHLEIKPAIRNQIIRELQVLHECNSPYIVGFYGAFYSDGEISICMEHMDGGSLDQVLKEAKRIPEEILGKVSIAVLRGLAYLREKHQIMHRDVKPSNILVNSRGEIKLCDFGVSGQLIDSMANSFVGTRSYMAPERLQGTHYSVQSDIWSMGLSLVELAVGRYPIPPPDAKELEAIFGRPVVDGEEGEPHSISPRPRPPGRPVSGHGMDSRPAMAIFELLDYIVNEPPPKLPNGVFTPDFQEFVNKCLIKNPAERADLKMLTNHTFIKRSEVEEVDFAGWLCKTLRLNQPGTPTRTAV
Leucine-rich repeat serine/threonine-protein kinase 2, sequence (Q5S007 whole entry): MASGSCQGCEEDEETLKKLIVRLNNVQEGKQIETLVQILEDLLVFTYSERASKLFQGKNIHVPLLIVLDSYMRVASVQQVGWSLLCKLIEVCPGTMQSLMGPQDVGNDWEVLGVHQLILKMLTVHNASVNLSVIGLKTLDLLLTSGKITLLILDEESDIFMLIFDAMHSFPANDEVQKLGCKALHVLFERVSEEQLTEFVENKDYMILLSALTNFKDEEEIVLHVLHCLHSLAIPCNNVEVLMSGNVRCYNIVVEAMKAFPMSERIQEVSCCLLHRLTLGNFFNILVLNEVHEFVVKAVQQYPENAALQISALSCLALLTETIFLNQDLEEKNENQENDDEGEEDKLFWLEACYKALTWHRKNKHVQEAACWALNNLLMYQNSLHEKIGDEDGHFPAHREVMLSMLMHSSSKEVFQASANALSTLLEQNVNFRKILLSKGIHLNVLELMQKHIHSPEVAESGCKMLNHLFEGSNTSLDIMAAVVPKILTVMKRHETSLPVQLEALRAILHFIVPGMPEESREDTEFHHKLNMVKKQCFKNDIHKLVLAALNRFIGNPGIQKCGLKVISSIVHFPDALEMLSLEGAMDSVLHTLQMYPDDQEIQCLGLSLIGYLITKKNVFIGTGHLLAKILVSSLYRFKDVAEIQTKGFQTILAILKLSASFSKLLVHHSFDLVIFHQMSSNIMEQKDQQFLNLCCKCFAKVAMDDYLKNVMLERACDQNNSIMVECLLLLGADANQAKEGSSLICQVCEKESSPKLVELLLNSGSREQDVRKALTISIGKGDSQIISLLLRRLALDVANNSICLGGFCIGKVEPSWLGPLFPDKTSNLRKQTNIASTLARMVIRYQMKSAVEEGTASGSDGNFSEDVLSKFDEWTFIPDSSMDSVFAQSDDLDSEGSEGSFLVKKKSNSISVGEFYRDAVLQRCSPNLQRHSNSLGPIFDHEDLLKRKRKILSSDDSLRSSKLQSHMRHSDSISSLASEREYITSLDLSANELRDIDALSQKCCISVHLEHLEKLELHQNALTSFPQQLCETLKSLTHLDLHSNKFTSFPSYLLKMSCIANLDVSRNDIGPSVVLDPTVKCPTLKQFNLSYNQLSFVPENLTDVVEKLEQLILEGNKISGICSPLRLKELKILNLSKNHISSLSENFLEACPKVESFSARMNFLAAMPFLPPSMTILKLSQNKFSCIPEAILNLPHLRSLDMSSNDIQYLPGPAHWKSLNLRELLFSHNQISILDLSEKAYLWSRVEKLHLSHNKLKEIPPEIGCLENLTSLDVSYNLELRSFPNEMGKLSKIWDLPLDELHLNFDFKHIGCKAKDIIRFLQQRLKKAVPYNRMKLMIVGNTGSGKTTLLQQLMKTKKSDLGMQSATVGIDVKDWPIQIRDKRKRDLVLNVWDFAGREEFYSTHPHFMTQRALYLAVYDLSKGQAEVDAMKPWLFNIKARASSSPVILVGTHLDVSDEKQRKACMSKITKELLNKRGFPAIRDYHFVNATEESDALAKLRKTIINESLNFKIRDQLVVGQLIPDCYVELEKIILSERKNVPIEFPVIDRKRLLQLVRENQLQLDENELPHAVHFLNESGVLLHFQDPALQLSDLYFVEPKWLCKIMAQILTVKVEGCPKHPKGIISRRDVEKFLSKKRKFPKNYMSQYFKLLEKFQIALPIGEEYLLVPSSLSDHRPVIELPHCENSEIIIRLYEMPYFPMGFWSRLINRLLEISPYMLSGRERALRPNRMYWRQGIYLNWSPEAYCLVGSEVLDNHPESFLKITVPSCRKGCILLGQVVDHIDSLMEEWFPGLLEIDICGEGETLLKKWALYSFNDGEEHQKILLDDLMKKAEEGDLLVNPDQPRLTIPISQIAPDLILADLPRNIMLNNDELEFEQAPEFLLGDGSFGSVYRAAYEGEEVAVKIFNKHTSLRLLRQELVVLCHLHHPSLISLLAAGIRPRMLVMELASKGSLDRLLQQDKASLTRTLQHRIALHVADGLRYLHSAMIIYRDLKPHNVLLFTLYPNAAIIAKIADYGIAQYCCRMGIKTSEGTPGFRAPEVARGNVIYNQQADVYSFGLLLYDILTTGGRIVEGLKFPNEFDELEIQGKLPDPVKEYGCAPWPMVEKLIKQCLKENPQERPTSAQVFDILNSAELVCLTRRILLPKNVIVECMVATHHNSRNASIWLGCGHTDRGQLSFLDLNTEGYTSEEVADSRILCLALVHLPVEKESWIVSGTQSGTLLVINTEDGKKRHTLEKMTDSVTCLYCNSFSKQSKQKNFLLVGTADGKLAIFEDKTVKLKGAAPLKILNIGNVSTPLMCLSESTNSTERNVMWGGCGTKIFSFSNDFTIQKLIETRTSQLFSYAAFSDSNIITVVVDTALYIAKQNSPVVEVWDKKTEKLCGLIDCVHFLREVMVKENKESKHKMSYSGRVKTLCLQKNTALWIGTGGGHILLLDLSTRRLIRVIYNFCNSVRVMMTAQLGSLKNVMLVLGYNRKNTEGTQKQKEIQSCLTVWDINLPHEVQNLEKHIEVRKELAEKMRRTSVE

Compound | inhibition [1] [%] | inhibition [2] [%] | inhibition [3] [%] | inhibition [4] [%] | inhibition [5] [%] | inhibition [6] [%] | inhibition [7] [%] | inhibition [8] [%] | inhibition [9] [%] | inhibition [10] [%] | inhibition [11] [%] | inhibition [12] [%] | inhibition [13] [%] | inhibition [14] [%] | inhibition [15] [%] | inhibition [16] [%] | inhibition [17] [%] | residual activity [18] [%] | inhibition [19] [%]
C[C@@H]1CN(c2cc(-c3n[nH]c4ccc(OC5(C)CC5)cc34)ncn2)C[C@H](C)O1 [MLi-2] | 0 | 6 | 33 | -0.531 | 5.27 | 10.4 | 8.27 | 20.3 | -0.0337 | -2.6 | 7.02 | 0.801 | 3.21 | 5.76 | 5.35 | 6.15 | -2 | – | –
C[C@@H]1CN(c2cc(-c3nn(C)c4ccc(OC5(C)CC5)cc34)ncn2)C[C@H](C)O1 [MLi-2-NC] | – | – | – | – | – | – | – | – | – | – | – | – | – | – | – | – | – | 22 | -0.4

— ChEMBL document CHEMBL4507291 (2021)
